Results from PMC12000251, “Evaluation of the Anti-Inflammatory Effects of Novel Fatty Acid-Binding Protein 4 Inhibitors in Microglia” (Journal of Neuroimmune Pharmacology, 2025).

Columns and labels:
[1] = 1D 1H NMR aqueous solubility in phosphate buffer; assay type: physicochemical; details: kinetic from dmso stock, phosphate buffer pH 7.4 in D2O, 0.1% d6-DMSO, 25 °C, range 3.125–100 µM, read-out: Soluble in phosphate buffer up to (concentration)
Procedure: 1D ^1H NMR was employed to determine the solubility limits of the four MFP compounds and BMS309403 in phosphate buffer. This method has been commonly used to determine compound solubility in the drug discovery setting (Devine et al. [2014]; Lee et al. [2015b]; Lin et al. [2009]). A 100 mM of stock solution of each compound was first prepared in d6-DMSO. These stock solutions were then added into phosphate buffer (50 mM sodium phosphate, 25 mM NaCl, 100 µM of DSS, pH 7.4 in D2O) to achieve a final d6-DMSO concentration of 0.1% (v/v) which is equivalent to the DMSO concentration present in BV-2 cell culture experiments. All samples were inspected to note whether visible precipitates were formed. ^1H NMR spectra for all of the samples were acquired using Bruker Avance III 600 MHz spectrometer at 25 °C. Experimental data were acquired using a relaxation delay of 5 s with 128 scans, and water suppression using an excitation sculpting pulse scheme. Mestrelab Research 13.0 software was used to integrate the proton resonances of the compounds. A well-resolved peak (i.e. no overlaps with any other peaks) in the spectrum of each compound was chosen for integration, relative to the DSS peak (at 0 ppm). […] In addition, the chemical shifts of the resonances in the 1D ^1H NMR spectra were monitored.

LPS-activated BV-2 cells [2] = assay: Intracellular ROS (DCF-DA) in LPS-activated BV-2 cells; assay type: cell-based, mouse
Procedure: BV-2 cells were cultured in DMEM/F-12 media supplemented with 10% (v/v) FBS and 1% (v/v) penicillin/streptomycin, and kept at 37 °C in a humidified incubator ([…], 5% CO2) for all studies. Cells with 80% confluency were used for experiments. […] In some experiments (detailed in Results), BV-2 cells were exposed to MFP compounds for 2 h before a 24 h exposure to LPS and MFP compounds, and in some studies, in the presence of FABP4 siRNA using a 24 h treatment that we have previously employed (Low et al. [2021]). In brief, BV-2 cells were washed once 4 h post-seeding with blank DMEM/F-12 media. siRNA complexes (containing FABP4 siRNA, target sequence 5’-[…]-3’ or AllStar Negative Control siRNA, target sequence proprietary) were added dropwise onto the cells. siRNA complexes were prepared by mixing siRNA and HiPerfect transfection reagent together in FBS-free DMEM/F12 media and incubating for 15 min to allow the siRNA complexes to form. The cells were incubated with the siRNA complex for 5 min, after which, DMEM/F12 media containing FBS was added into each well to dilute the siRNA complexes to 5 nM.
Intracellular ROS in BV-2 cells, following treatment with MFP compounds and LPS, was detected using the widely-used membrane permeable probe, DCF-DA. Post treatment, BV-2 cells were rinsed once with warm HBSS prior to being incubated with 40 µM of DCF-DA for 30 min at 37°C, 5% CO2. The wells were then rinsed again with HBSS before being read on a Perkin-Elmer Enspire plate reader (λex: 488 nm, λem: 535 nm) as we have reported previously (Kagawa et al. [2023]).

LPS-activated BV-2 cells [3] = assay: RT-qPCR for TNF-α mRNA expression in LPS-activated BV-2 cells; assay type: cell-based, mouse; details: 10 µM, 1 µg/mL LPS 24 h
Procedure: BV-2 cells were cultured in DMEM/F-12 media supplemented with 10% (v/v) FBS and 1% (v/v) penicillin/streptomycin, and kept at 37 °C in a humidified incubator ([…], 5% CO2) for all studies. Cells with 80% confluency were used for experiments. At 24 h post-seeding, BV-2 cells were treated with either of the MFP compounds (at concentrations detailed below) or vehicle (0.1% (v/v) DMSO) and 1 µg/mL LPS for a period of 24 h. In some experiments (detailed in Results), BV-2 cells were exposed to MFP compounds for 2 h before a 24 h exposure to LPS and MFP compounds, and in some studies, in the presence of FABP4 siRNA using a 24 h treatment that we have previously employed (Low et al. [2021]). […]
RT-qPCR was performed to determine the amount of TNF-α mRNA following the required cell treatments, as previously described (Low et al. [2020]). […] The concentration and purity of the isolated RNA was assessed using a Thermo Fisher Nanodrop 1000 spectrophotometer (Rockford, IL). […] The threshold cycles (Ct) were automatically calculated using the CFX manager software. […]

solubility [1]: ≥ 100 µM
Compound: O=C(O)c1cccc(NS(=O)(=O)c2ccc(Cl)c(Cl)c2)c1 [MFP-0012328]
reduction of ROS production vs LPS-treated BV-2 cells (LPS-activated BV-2 cells [2]; 5 nM FABP4 siRNA, 10 µM MFP-0012328, or both, with 1 µg/mL LPS 24 h, range over the three treatments): 36.6–61.2%
further reduction of ROS levels in FABP4 siRNA treated cells (LPS-activated BV-2 cells [2]; 10 µM plus 5 nM FABP4 siRNA, 1 µg/mL LPS 24 h): not able to reduce ROS levels any further
reduction of ROS production vs LPS-alone (LPS-activated BV-2 cells [2]; BV-2 cells pre-treated with LPS for 4 h, then 10 µM compound): 27.8%
reduction of TNF-α mRNA levels relative to LPS alone (LPS-activated BV-2 cells [3]): 17%
